The text below walks through data of patent publication US11299462B2, “Crystal form of oxopicolinamide derivative and preparation method therefor” (JIANGSU HENGRUI MEDICINE CO., LTD., priority 2018, dated 2022).

Data set [1] is described as follows: Study of the stability of the crystal forms (HPLC purity and XRPD crystal form, Day 7). To be noted: for XRPD peaks / crystallinity / HPLC purity change / crystal form stability: 25° C.-60% RH and 40° C.-75% RH; for Purity %: HPLC purity, Day 7, spread flat in the air; for Crystal form: XRPD, Day 7; for chemical stability: conclusion from Table 7. The format is physicochemical. The method, then:
Example 13. Study of the Stability of the Crystal Forms
The samples of crystal forms A, B, C, D and F were spread flat in the air to test sample stability under conditions of 4° C., 25° C.-60% relative humidity (RH) and 40° C.-75% relative humidity (RH). The sampling was carried out on Day 7. The HPLC purity and crystal form stability of the samples were studied.
The XRPD spectrums of the samples of crystal forms A, B, C, D and F under conditions of 25° C.-60% RH and 40° C.-75% RH are shown in FIGS. 7 to 16.
It can be seen that the stability of crystal forms B and F is better than that of crystal forms A, C and D.

Data set [2] relates to human blood. In words: In vitro anticoagulant effect on human blood (APTT detection in plasma). It is filed as biochemical. The method, then: Test Example 2: Determination of In Vitro Anticoagulant Effect of the Compound of the Present Invention on Human Blood
1. Experimental Materials
Plasma: human blood was collected in blood collection tubes free of anticoagulant, and then 3.8% sodium citrate (volume ratio 1:9) was added. The tubes were centrifuged at 2500 rpm for 10 minutes at room temperature, and then the plasma was collected and stored at −80° C.;
Reagents: APTT reagent (Activated partial thromboplastin time assay kit, SIEMENS, No. B4218-1), calcium chloride solution;
Instrument: coagulation instrument (SYSMEX, CA-500).
The separated plasma was melted at room temperature and mixed well. 10000 μM of test compound dissolved in 100% DMSO was diluted to 3000, 300, 200, 150, 75, 30, 10, 3, 0.3 μM with 100% DMSO, and the blank was 100% DMSO. The reagent, plasma, and compounds were placed in corresponding positions in the coagulation instrument, and APTT detection of the compound was carried out.
Curve fitting was carried out by Prism, and CT2 (i.e., the concentration of the compound corresponding to 2 times the APTT of the blank control) was calculated. CT2=2.0.

Structures are written as SMILES.

In the case of `COc1cn([C@@H](Cc2ccccc2)C(=O)Nc2ccc(C(=O)O)cc2)c(=O)cc1-c1cc(Cl)ccc1C(C)=O` [Crystal form D, (S)-4-(2-(4-(2-acetyl-5-chlorophenyl)-5-methoxy-2-oxopyridin-1(2H)-yl)-3-phenylpropanamido)benzoic acid], in data set [1], the XRPD peaks entry was “have changed with the loss of some peak characters”, the crystallinity result was “has decreased” and the chemical stability entry is reported as “good”. In addition, in data set [1] (4° C.), the Purity % was determined as 98.4% and the Crystal form entry is reported as “Same”. Besides, in data set [1] (25° C. 60% RH), the Purity % is 98.15% and the Crystal form result is “Different”. In addition, in data set [1] (40° C. 75% RH), the Purity % was found to be 98.33% and the Crystal form result is on record as “Different”.

In the case of `COc1cn([C@@H](Cc2ccccc2)C(=O)Nc2ccc(C(=O)O)cc2)c(=O)cc1-c1cc(Cl)ccc1C(C)=O` [Crystal form A, (S)-4-(2-(4-(2-Acetyl-5-chlorophenyl)-5-methoxy-2-oxopyridin-1(2H)-yl)-3-phenylpropanamido)benzoic acid], in data set [1], the XRPD peaks entry is recorded as “have changed with the loss of some peak characters”, the crystallinity result is recorded as “has decreased” and the chemical stability entry is “good”. Besides, in data set [1] (4° C.), the Purity % is reported as 98.94% and the Crystal form result is recorded as “Same”. In addition, in data set [1] (25° C. 60% RH), the Purity % is recorded as 98.99% and the Crystal form result is given as “Different”. Besides, in data set [1] (40° C. 75% RH), the Purity % came out at 99.01% and the Crystal form result is on record as “Different”.

Take `COc1cn([C@@H](Cc2ccccc2)C(=O)Nc2ccc(C(=O)O)cc2)c(=O)cc1-c1cc(Cl)ccc1C(C)=O` [Crystal form F, (S)-4-(2-(4-(2-Acetyl-5-chlorophenyl)-5-methoxy-2-oxopyridin-1(2H)-yl)-3-phenylpropanamido)benzoic acid]: in data set [1] (4° C.), the HPLC purity change result is on record as “changed slightly”, the XRPD peaks entry was “have not changed”, the crystal form stability entry is “stable” and the Purity % was found to be 99.17%. Besides, the Crystal form entry in data set [1] (4° C.) is recorded as “Same”. In addition, in data set [1] (25° C. 60% RH), the Purity % is 99.33% and the Crystal form entry is reported as “Same”. In addition, in data set [1] (40° C. 75% RH), the Purity % is recorded as 99.21% and the Crystal form entry was “Same”. In data set [1], the chemical stability entry is “good”.

`COc1cn([C@@H](Cc2ccccc2)C(=O)Nc2ccc(C(=O)O)cc2)c(=O)cc1-c1cc(Cl)ccc1C(C)=O` [Crystal form B, (S)-4-(2-(4-(2-Acetyl-5-chlorophenyl)-5-methoxy-2-oxopyridin-1(2H)-yl)-3-phenylpropanamido)benzoic acid]: in data set [1] (4° C.), the HPLC purity change entry was “changed slightly”, the XRPD peaks result was “have not changed”, the crystal form stability entry was “stable” and the Purity % is recorded as 99.13%. The Crystal form entry in data set [1] (4° C.) is “Same”. For the same molecule, in data set [1] (25° C. 60% RH), the Purity % was found to be 99.14% and the Crystal form result is “Same”. In data set [1] (40° C. 75% RH), the Purity % stood at 99.13% and the Crystal form result is “Same”. For the same molecule, the chemical stability entry in data set [1] is reported as “good”.

For the molecule `COc1cn([C@@H](Cc2ccccc2)C(=O)Nc2ccc(C(=O)O)cc2)c(=O)cc1-c1cc(Cl)ccc1C(C)=O` [compound of formula (I), (S)-4-(2-(4-(2-acetyl-5-chlorophenyl)-5-methoxy-2-oxopyridin-1(2H)-yl)-3-phenylpropanamido) benzoic acid], the “CT2 (concentration of the compound corresponding to 2 times the APTT of the blank control)” value in data set [2] is on record as 2.0.

For the molecule `COc1cn([C@@H](Cc2ccccc2)C(=O)Nc2ccc(C(=O)O)cc2)c(=O)cc1-c1cc(Cl)ccc1C(C)=O` [Crystal form C, (S)-4-(2-(4-(2-Acetyl-5-chlorophenyl)-5-methoxy-2-oxopyridin-1(2H)-yl)-3-phenylpropanamido)benzoic acid], the XRPD entry in data set [1] (40° C.-75% RH) is “has also changed”. For the same molecule, the Purity % is listed as 99.28% in data set [1] (4° C.), 99.29% in data set [1] (25° C. 60% RH) and 99.31% in data set [1] (40° C. 75% RH). Also, the Crystal form entry in data set [1] (4° C.) is reported as “Same”; in data set [1] (25° C. 60% RH), “Same”; in data set [1] (40° C. 75% RH), “Different”. Moreover, the chemical stability result in data set [1] is “good”.
